Patent US20220023389A1, “VASODILATORS FOR USE IN THE TREATMENT OF A RETINAL ISCHEMIC DISORDER” (University of Copenhagen, priority 2018, published 2022)
Where no end group is shown, it is not given here.

Key:
[1] = target: calcitonin receptor-like receptor (CLR) in complex with receptor activity-modifying protein 1 (RAMP1) (Homo sapiens, UniProt O60894+Q16602); conditions: removal of residues 1-7; cited from earlier work
[2] = system: retina (photoreceptors, bipolar cells); experiment: Electroretinography (scotopic A-wave and B-wave amplitude) after ET-1 induced retinal ischemia; assay type: in vivo, Sprague dawley rat; conditions: day 21, ET-1 induced ischemia right eye (5 μL 500 μM), ET-1 alone/vehicle
Procedure: Rats were anesthetized with 90 mg/kg ketamine & 10 mg/kg xylazine (i.p). Oxybuprocain 0.4% Anesthetic was applied topically to the eyes.
Guided under a stereoscopic microscope to avoid lens and retinal injury, 5 μl intravitreal injection of 500 uM ET-1 (Phoenix Pharmaceuticals, Inc.) was performed using a digital controller and UltraMicroPump III, with NanoFil 10 μl syringe (WPI) connected to intraoucular injector with a 34 g bevelled needle.
Injection was performed through the sclera, inserted approximately 1 mm posterior to the corneal limbus at a 45° angle to avoid contact with the lens capsule and direct the contents, 1.5 mm into the vitreous chamber, in the right eye (FIG. 1). The needle remained in the vitreous cavity for 30 seconds after injection and was then gently withdrawn. […]
Day 0—ET-1 is administered intravitreally alone or in combination with the current invention. Fundus is recorded before and after injection. […]
After overnight dark adaptation for at least 12 hours, the animals were anesthetized with 90 mg/kg ketamine and 10 mg/kg xylazine delivered by a single intraperitoneal injection. […] ERGs were recorded from both eyes simultaneously with a gold wire electrode loops, placed on the corneal apex, with a drop of saline applied to the corneal surface for hydration during the testing procedure. […] The scotopic A-wave amplitude and B-wave amplitude were recorded and evaluated.

Chain of calcitonin receptor-like receptor (CLR) in complex with receptor activity-modifying protein 1 (RAMP1) (Q16602 23-461): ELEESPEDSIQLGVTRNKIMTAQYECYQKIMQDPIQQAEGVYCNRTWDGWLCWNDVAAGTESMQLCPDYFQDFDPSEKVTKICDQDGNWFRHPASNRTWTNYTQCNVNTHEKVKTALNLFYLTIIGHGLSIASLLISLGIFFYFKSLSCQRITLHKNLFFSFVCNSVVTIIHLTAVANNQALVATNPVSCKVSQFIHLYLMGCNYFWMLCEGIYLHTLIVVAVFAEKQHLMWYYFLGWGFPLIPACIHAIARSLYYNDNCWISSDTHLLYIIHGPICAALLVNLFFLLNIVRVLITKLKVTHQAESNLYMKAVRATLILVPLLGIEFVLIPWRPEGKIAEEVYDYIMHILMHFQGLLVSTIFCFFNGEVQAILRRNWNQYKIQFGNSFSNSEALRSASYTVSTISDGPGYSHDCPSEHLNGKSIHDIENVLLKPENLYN
Chain of calcitonin receptor-like receptor (CLR) in complex with receptor activity-modifying protein 1 (RAMP1) (O60894 27-148): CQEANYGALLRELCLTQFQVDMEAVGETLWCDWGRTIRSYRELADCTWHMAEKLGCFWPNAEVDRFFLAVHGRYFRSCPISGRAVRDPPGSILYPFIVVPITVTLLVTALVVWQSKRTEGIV

| Substance | binding potency relative to CGRP (less potent) [1] | efficacy [1] | avg. max A-wave amplitude [2] [μV] | avg. max B-wave amplitude [2] [μV] |
| --- | --- | --- | --- | --- |
| CGRP8-37 | approximately 10 fold | lost all efficacy | – | – |
| Endothelin-1 (CSCSSLMDKECVYFCHLDIIW; ends and bridges not checked; cysteine pairing not given here; UniProt P05305 53-73, looked up) [ET-1, vasoconstrictive peptide injected intravitreally to induce retinal ischemia] | – | – | 457±40 | 804±188 |
